Source: US7556935B2 (Dana-Farber Cancer Institute, Inc., priority 2001, dated 2009)
Residues, ends and D or L forms follow the SMILES beside them. *: point of attachment. Cbz = O=C(OCc1ccccc1)*

Tests used:
[1] = tested on: c-Abl; assay: c-Abl levels in the ER fraction, ER stress; format: cell-based
Procedure: (§1) Cells were treated with A23187 (Sigma) or Brefeldin A (Sigma).
(§2) Isolation of the ER fraction: Cells were washed with PBS, lysed in homogenization buffer (50 mM Tris-HCl, pH 8.0, 1 mM b-mercaptoethanol, 1 mM EDTA, 0.32 M sucrose and 0.1 mM PMSF), and then centrifuged at 5,000×g for 10 minutes. The supernatant was collected and centrifuged at 105,000×g for 1 hour. […] The resulting supernatant was used as the ER fraction.

[2] = tested on: grp78; assay: grp78 expression in the ER fraction, ER stress; format: cell-based
Procedure: as §1, §2

[3] = tested on: c-Abl; assay: c-Abl targeting to mitochondria under ER stress, immunofluorescence and immunoblot; format: cell-based
Procedure: as §1
Digital confocal immunofluorescence microscope: Cells grown on poly-D-lysine coated glass coverslips were fixed (3.7% formaldehyde in PBS, pH 7.4; 10 minutes), permeabilized (0.2% Triton X-100; 10 min), blocked for 30 minutes in media containing serum. After rinsing with PBS, immunostaining was performed by incubating the cells with 50 ng/slide of anti-c-Abl (K-12 rabbit polyclonal; Santa Cruz) and anti-grp-78 (C-20 goat polyclonal; Santa Cruz). For c-Abl and calreticulin staining, cells were incubated first with anti-c-Abl alone for 1 hour followed by blocking for 30 minutes in media containing serum. After washing with PBS, cells were then incubated with anti-calreticulin (rabbit polyclonal; StressGen). Finally, cells were incubated with a 1:250 dilution of CY-3 or Fluorescein (FITC)-conjugated anti-rabbit or anti-goat secondary antibodies (Jackson ImmunoResearch) for 1 hour. Mitochondria were stained with 0.006 ng/slide Mitotracker Green FM (Molecular Probes). Nuclei were stained with 4,6-diamino-2-phenylindole (DAPI; 1 mg/ml in PBS). Coverslips were mounted onto slides with 0.1 M Tris (pH 7.0) in 50% glycerol. Cells were visualized by digital confocal immunofluorescence and images were captured with cooled CCD camera mounted on a Zeiss Axioplan 2 microscope. Images were deconvolved using Slidebook software (Intelligent Imaging Innovations, Inc., Denver, Colo.).
(§3) The supernatant was collected and centrifuged at 10,000×g for 10 minutes. […] Protein concentration was determined by the Bio-Rad protein estimation kit.

[4] = tested on: c-Abl; assay: c-Abl levels in cytoplasmic and nuclear fractions, ER stress; format: cell-based
Text: (§4) Isolation of cytoplasmic and nuclear fractions: The cytoplasmic and nuclear fractions were isolated as described in Example 1.

[5] = tested on: c-Abl; assay: Mitochondrial c-Abl kinase activity, GST-Crk(120-225) phosphorylation, ER stress; format: cell-based; conditions: anti-c-Abl immunoprecipitates of mitochondrial fraction
Procedure: as §3
Analysis of c-Abl activity: Cell lysates were prepared as described in Example 1 and subjected to immunoprecipitation with anti-c-Abl (K-12; Santa Cruz). The immunoprecipitates were resuspended in kinase buffer (see Example 1) containing […] of [g-32P]ATP and GST-Crk(120-225) or GST-Crk(120-212) for 15 minutes at 30° C. The reaction products were analyzed by SDS-PAGE and autoradiography.

[6] = tested on: cytochrome c; assay: Cytochrome c release in MEFs under ER stress; format: cell-based, mouse; conditions: wild-type MEFs
Procedure: as §1, §4

[7] = tested on: MEFs; assay: Apoptosis by sub-G1 DNA in MEFs under ER stress; format: cell-based, mouse
Procedure: Apoptosis assays: DNA content was assessed by staining ethanol-fixed cells with propidium iodide and monitoring by FACScan (Becton-Dickinson).

[8] = tested on: 26S proteosome; assay: In vitro Ub-proteosome system, degradation of catalase; format: biochemical
Text: As a control, degradation was inhibited when [g-S]ATP was substituted for ATP to prevent ubiquitination. […] Lactacystin, another proteosome inhibitor, was used to assess degradation of catalase in cells.

SMILES | c-Abl levels in the ER fraction [1] | expression of grp78 [2] | translocation of c-Abl to mitochondria, intracellular fluorescence ([3]; anti-c-Abl and Mitotracker signals) | c-Abl protein in the mitochondrial fraction, immunoblot ([3]; mitochondrial fraction) | c-Abl levels in the cytoplasm or nucleus [4] | mitochondrial c-Abl activity [5] | release of cytochrome c [6] | induction of apoptosis ([7]; c-Abl−/− cells) | apoptosis, sub-G1 DNA ([7]; wild-type cells) | degradation of catalase [8]
CNc1ccc2oc(C[C@H]3O[C@@]4(CC[C@H]3C)O[C@H]([C@H](C)C(=O)c3ccc[nH]3)[C@H](C)C[C@H]4C)nc2c1C(=O)O [A23187] | time-dependent decrease | increases in expression of grp78 | translocation of c-Abl to mitochondria | time-dependent increase | little if any effect | increases in mitochondrial c-Abl activity | induces the release of cytochrome c | little effect | induction of sub-G1 DNA | 
CC(C)C[C@@H](C=O)NC(=O)[C@H](CC(C)C)NC(=O)[C@H](CC(C)C)NC(=O)OCc1ccccc1 [MG132] (Cbz-Leu-Leu-Leu-aldehyde) |  |  |  |  |  |  |  |  |  | blocked
